Experimental findings from patent US20030027981A1, “Urokinase-type plasminogen activator receptor” (priority 1989, published 2003) are described below.

The test system of the assay is HT-1080 cells. Kind of assay: Formation of cell-bound plasmin on HT-1080 cells in serum culture (tranexamic acid eluate, thioesterase assay). The class given is cell-based, human. To be noted: for Bound plasmin activity: 2 h, serum medium, all with Plg 40 μg/ml, aprotinin, anti-Plg-1, TA (100 μM) also with anti-PAI-1 10 μg/ml; for activity at 10 µM / activity at 100 µM: Homo sapiens, HT-1080; for activity at 10 µM: Plg 40 μg/ml + TA 10 μM; for activity at 100 µM: Plg 40 μg/ml + TA 100 μM. Here is the method:
Human fibrosarcoma cells (HT-1080, CCL 121) were obtained from the American Type Culture Collection, Rockville, Md. Confluent cell layers were grown in plastic Linbro wells (2 cm^2; Flow Laboratories) in Eagle's minimal essential medium (MEM) supplemented with 10% heat-inactivated (56° C. for 60 minutes) fetal calf serum (Gibco), 100 IU/ml penicillin and 50 μg/ml streptomycin. After reaching confluence, the cells were rinsed three times with MEM containing 0.2% bovine serum albumin (BSA), then changed to either serum-free medium (0.5 ml) or medium containing 10% heat-inactivated and plasminogen-depleted (i.e. absorbed with lysine-Sepharose; Pharmacia, Uppsala, Sweden) fetal calf serum as indicated in the Examples.
Human plasminogen (with glutamic acid N-terminal) was prepared by affinity chromatography on lysine-Sepharose (Deutsch, D. G., and E. T. Mertz, “Plasminogen: Purification from human plasma by affinity chromatography”, Science 170: 1095-1097, 1970) from freshly separated, unfrozen human plasma pretreated with 10 μM p-nitrophenyl guanidinobenzoate, 1 mM phenylmethylsulfonylfluoride and 0.1 μg/ml of an anti-catalytic murine monoclonal IgG antibody to human t-PA (ESP-2; see MacGregor, I. R. et al., “Characterization of epitopes on human tissue plasminogen activator recognised by a group of monoclonal antibodies”, Thromb. Haem. 53: 45-50, 1985); American Diagnostica, Greenwich, Conn.).
Res. 46: 755-766, 1987) titration equivalent of 3.6 IU u-PA/ml; an anti-catalytic murine monoclonal IgG antibody to human u-PA (clone 2 (10 μg/ml) in Nielsen, L. S. et al., “Enzyme-linked immunosorbent assay for human urokinase-type plasminogen activators and its proenzyme using a combination of monoclonal and polyclonal antibodies”, J. Immunoassay 7: 209-228, 1986); the anti-catalytic monoclonal antibody to human t-PA (10 μg/ml); a neutralising murine monoclonal IgG antibody to human PAI-1 (Nielsen, L. S. et al., “Monoclonal antibodies to human 54,000 molecular weight plasminogen activator inhibitor from fibrosarcoma cells—inhibitor neutralization and one-step affinity purification”, Thromb. Haem. 55: 206-212, 1986) (10 μg/ml) and diisopropyl fluorophosphate (DFP)-inactivated u-PA (0-10 μg/ml).
The plasmin activity of culture supernatant samples (50 μl) was assayed directly by incubation with the thioester substrate solution above (200 μl) for 30 minutes (serum-free supernatants) or 3 hours (serum-containing supernatants) at 37° C. An estimate of the amount of active plasmin present was made from calibration curves using human plasmin dilutions in serum-free medium covering the appropriate ranges of activity.
Plasmin bound to the cell layer was recovered and assayed as follows. After harvest of culture medium, the cells were rinsed three times with PBS (plasmin assays of further rinses were negative); then the bound plasmin was specifically eluted (Miles, L. A., and E. F. Plow, “Binding and activation of plasminogen on the platelet surface”, J. Biol. Chem. 260: 4303-4311, 1985) with a solution of 1 mM tranexamic acid in the same rinsing solution (150 μl/well). Plasmin activity was assayed in eluate samples (50 μl) as above with an incubation time of 3 hours at 37° C. Tranexamic acid at 1 mM had no effect on the thioesterase activity of plasmin in these assays.
The following additions were made to cell layers growing in MEM medium (0.5 ml) containing 10% heat-inactivated and plasminogen-depleted fetal calf serum: native human plasminogen (Plg, 40 μg/ml); anti-catalytic monoclonal antibody to human u-PA (10 μg/ml); anti-catalytic monoclonal antibody to human t-PA (10 μg/ml); PAI-2 (titration equivalent of 3.6 UI u-PA/ml); anti-catalytic monoclonal antibody to human plasmin (20 μg/ml); aprotinin (200 KIU/ml); tranexamic acid (TA, as shown). The cultures were incubated for the times shown before assay of cell-bound plasmin. The incubation with plasminogen was used as the 100% control for bound plasmin. […]

Where [1] appears, read: 3 h, serum medium with Plg 40 μg/ml (=100%), anti-u-PA 10 μg/ml, anti-t-PA 10 μg/ml, PAI-2 equiv. 3.6 IU u-PA/ml, aprotinin 200 KIU/ml, anti-Plg-1 20 μg/ml.
The mark [2] stands for this setting: 17 h, serum medium with Plg 40 μg/ml (=100%), additions as b555.

As for `NC[C@H]1CC[C@H](C(=O)O)CC1` [TA, tranexamic acid], the “Bound plasmin activity” value came out at 0 ng. For the same molecule, for the setting “3 h”, the activity at 10 µM is 9.7% and the activity at 100 µM worked out at 2.2%. In addition, where the note is “17 h”, the activity at 10 µM was 34% and the activity at 100 µM stood at 13%.

With “Plg: native human plasminogen (glutamic acid N-terminal) purified from human plasma on lysine-Sepharose”, the “Bound plasmin activity” value was 12 ng. Further, where the note is “40 μg/ml human plasminogen in 0.5 ml serum medium, 2 cm^2 cell layer, 3 hours 37° C.”, the “Plasmin recovered from the cell layer” value is recorded as 28 ng. The “Plasmin measurable in the medium” value (40 μg/ml human plasminogen in 0.5 ml serum medium, 3 hours 37° C.) is listed as 10 ng. Also, the “Bound plasmin activity (%)” value under setting [1] was 100%. The “Bound plasmin activity (%)” value under setting [2] came out at 100%.

Take aprotinin: the “Bound plasmin activity” value came out at 3.3 ng. The “Bound plasmin activity (%)” value under setting [1] was found to be 13.2%. Besides, the “Bound plasmin activity (%)” value under setting [2] is given as 7.8%.

B1: PAI-2: human type-2 plasminogen activator inhibitor purified from U937 cells (protein, UniProt P05120 1-415, looked up)
Plasminogen activator …: MEDLCVANTLFALNLFKHLAKASPTQNLFLSPWSISSTMAMVYMGSRGSTEDQMAKVLQFNEVGANAVTPMTPENFTSCGFMQQIQKGSYPDAILQAQAADKIHSSFRSLSSAINASTGNYLLESVNKLFGEKSASFREEYIRLCQKYYSSEPQAVDFLECAEEARKKINSWVKTQTKGKIPNLLPEGSVDGDTRMVLVNAVYFKGKWKTPFEKKLNGLYPFRVNSAQRTPVQMMYLREKLNIGYIEDLKAQILELPYAGDVSMFLLLPDEIADVSTGLELLESEITYDKLNKWTSKDKMAEDEVEVYIPQFKLEEHYELRSILRSMGMEDAFNKGRANFSGMSERNDLFLSEVFHQAMVDVNEEGTEAAAGTGGVMTGRTGHGGPQFVADHPFLFLIMHKITNCILFFGRFSSP
On to B1, for which the “Bound plasmin activity (%)” value under setting [1] was determined as 48%; the “Bound plasmin activity (%)” value under setting [2] worked out at 19%; the “Bound plasmin activity (%)” value (cells preincubated 1 h with inhibitor (anti-u-PA 10 μg/ml, PAI-2 equiv. 3.6 IU u-PA/ml), rinsed, then 3 h with Plg 40 μg/ml in serum medium) was determined as 54%.
